Experimental data published in ChEMBL document CHEMBL1201862, “PubChem BioAssay data set” (2004).
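Growth conditions: 96-well plates. Treatment: test compound, 48 hours, 5 concentrations. Analysis: linear interpolation between bracketing concentrations; unreached endpoints set to highest concentration. Abbreviation: GI50, concentration required for 50% inhibition of growth.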 The source made the active and inactive calls. Rule as the data show it: active = GI50 up to about 1.1 µM and inactive = higher. Non-standard residues stand in square brackets, D forms with d. Residues, ends and D or L forms follow the SMILES beside them. *: point of attachment. Phe(4-NO2) = N[CH](Cc1ccc([N+](=O)[O-])cc1)C(=O)O; Boc = CC(C)(C)OC(=O)*

Legend:
Experiment in all cases: inhibition of tumour cell growth, NCI panel, 48 h
[1] = tested on: A498
[2] = tested on: A549
[3] = tested on: CCRF-CEM
[4] = tested on: COLO 205
[5] = tested on: HCT-116
[6] = tested on: K562
[7] = tested on: KM12
[8] = tested on: M14
[9] = tested on: MCF7
[10] = tested on: Malme-3M
[11] = tested on: NCI-H226
[12] = tested on: NCI/ADR-RES
[13] = tested on: OVCAR-3
[14] = tested on: OVCAR-4
[15] = tested on: OVCAR-5
[16] = tested on: SK-MEL-2
[17] = tested on: SR
[18] = tested on: SW-620
[19] = tested on: U-251
[20] = tested on: UACC-62

SMILES	GI50 [1]	GI50 [2]	GI50 [3]	GI50 [4]	GI50 [5]	GI50 [6]	GI50 [7]	GI50 [8]	GI50 [9]	GI50 [10]	GI50 [11]	GI50 [12]	GI50 [13]	GI50 [14]	GI50 [15]	GI50 [16]	GI50 [17]	GI50 [18]	GI50 [19]	GI50 [20]
COc1ccc(OC)c(C(=O)/C=C/c2cc(O)c(O)cc2F)c1	3.17 µM (inactive)	9.57 µM (inactive)	0.41 µM (active)	15.5 µM (inactive)	0.47 µM (active)	0.356 µM (active)	0.474 µM (active)	0.638 µM (active)	0.29 µM (active)	2.47 µM (inactive)	5.24 µM (inactive)	0.412 µM (active)	0.18 µM (active)	2.29 µM (inactive)	13 µM (inactive)	1.02 µM (active)	0.227 µM (active)	0.845 µM (active)	0.486 µM (active)	0.701 µM (active)
CC(C)(C)[Si](C)(C)OCCOCn1cc(F)c(=O)[nH]c1=O	> 100 µM (inactive)	> 100 µM (inactive)	> 100 µM (inactive)	> 100 µM (inactive)	> 100 µM (inactive)	> 100 µM (inactive)	> 100 µM (inactive)	> 100 µM (inactive)	> 100 µM (inactive)	> 100 µM (inactive)	> 100 µM (inactive)	> 100 µM (inactive)	> 100 µM (inactive)	> 100 µM (inactive)	> 100 µM (inactive)	> 100 µM (inactive)	> 100 µM (inactive)	> 100 µM (inactive)	> 100 µM (inactive)	> 100 µM (inactive)
S=C(N/N=C(/c1ccccc1)c1ccccn1)Nc1cccc(Cl)c1	2.24 µM (inactive)	1.55 µM (inactive)	< 0.0258 µM (active)	< 0.0315 µM (active)	< 0.0189 µM (active)		0.414 µM (active)	0.0596 µM (active)	0.091 µM (active)	0.119 µM (active)	0.508 µM (active)	0.0432 µM (active)		0.0524 µM (active)	0.984 µM (active)	0.839 µM (active)	< 0.026 µM (active)	< 0.0385 µM (active)	0.169 µM (active)	0.201 µM (active)
Cc1[nH]c(=O)nc(S)c1C(=O)NC1C2CCCCC2NC2CCCCC21 (centres undefined)	18.3 µM (inactive)		14.8 µM (inactive)	20.5 µM (inactive)	15.1 µM (inactive)	4.57 µM (inactive)	16.1 µM (inactive)	14.2 µM (inactive)	17 µM (inactive)	24.1 µM (inactive)	17.3 µM (inactive)	17.7 µM (inactive)	16 µM (inactive)	18.3 µM (inactive)	18.4 µM (inactive)	17.4 µM (inactive)	28.6 µM (inactive)	18.1 µM (inactive)	13.9 µM (inactive)	4.09 µM (inactive)
CN1C(=O)[C@@H]2[C@@H]3c4ccccc4N[C@@H]3c3[nH]c4ccccc4c3[C@@H]2C1=O	25.4 µM (inactive)	22.8 µM (inactive)	17.3 µM (inactive)	17 µM (inactive)	29.4 µM (inactive)	22.3 µM (inactive)			22.4 µM (inactive)		60.8 µM (inactive)	22.8 µM (inactive)	16.6 µM (inactive)	16.9 µM (inactive)	20.1 µM (inactive)	17.3 µM (inactive)	15.8 µM (inactive)	29.2 µM (inactive)	23.8 µM (inactive)	14.5 µM (inactive)
C[C@]12C[C@H](O)[C@H]3[C@@H](CCC4=CC(=O)CC[C@@]43C)[C@@H]1CC[C@@H]2c1csc(-c2ccccc2)n1	> 39 µM (inactive)	11.2 µM (inactive)		> 28 µM (inactive)	> 100 µM (inactive)	1.52 µM (inactive)	> 46.7 µM (inactive)	> 92.7 µM (inactive)	> 23 µM (inactive)	> 44.2 µM (inactive)	> 58.1 µM (inactive)	46.6 µM (inactive)	> 22.4 µM (inactive)	23.2 µM (inactive)	> 100 µM (inactive)	> 34 µM (inactive)	3.21 µM (inactive)	39.5 µM (inactive)	24.9 µM (inactive)	29.4 µM (inactive)
N/N=C1/C2CN3CCN(C2)CC1(c1ccc([N+](=O)[O-])cc1)C3	> 100 µM (inactive)			> 100 µM (inactive)	> 100 µM (inactive)	> 100 µM (inactive)	> 100 µM (inactive)		> 100 µM (inactive)	> 100 µM (inactive)	> 100 µM (inactive)	> 100 µM (inactive)	> 100 µM (inactive)	> 100 µM (inactive)	> 100 µM (inactive)	> 100 µM (inactive)	27.7 µM (inactive)	> 100 µM (inactive)	> 100 µM (inactive)	> 100 µM (inactive)
COC(=O)CCC(NC(=O)OC(C)(C)C)C(=O)NC(Cc1ccc([N+](=O)[O-])cc1)C(=O)NC(CCC(=O)OC)C(=O)OC (centres undefined) (Boc-Glu(OMe)-[Phe(4-NO2)]-Glu(OMe)-OMe; configuration not given here)	> 100 µM (inactive)	> 100 µM (inactive)	12.3 µM (inactive)	> 100 µM (inactive)	> 100 µM (inactive)	35.4 µM (inactive)	> 100 µM (inactive)	> 100 µM (inactive)	> 100 µM (inactive)	> 100 µM (inactive)	74.8 µM (inactive)	> 100 µM (inactive)	> 100 µM (inactive)	> 100 µM (inactive)	> 100 µM (inactive)	> 100 µM (inactive)	28.8 µM (inactive)	> 100 µM (inactive)		> 100 µM (inactive)
